Laboratory results: ChEMBL document CHEMBL1122324, “New antihypertensive cannabinoids” (1983)

Tests used:
Settings in all cases: route oral
Rattus norvegicus [1] = experiment: percentage decrease in heart rate after 24 hr at a dose of 1 mg/kg administered perorally in rats.; format: functional
Rattus norvegicus [2] = experiment: percentage decrease in heart rate after 24 hr at a dose of 3 mg/kg administered perorally in rats.; format: functional
Rattus norvegicus [3] = experiment: percentage decrease in heart rate after 24 hr at a dose of 30 mg/kg administered perorally in rats.; format: functional
Rattus norvegicus [4] = experiment: percentage decrease in heart rate after 4 hr at a dose of 10 mg/kg administered perorally in rats.; format: functional
Rattus norvegicus [5] = experiment: percentage decrease in heart rate after 4 hr at a dose of 1 mg/kg administered perorally in rats.; format: functional
Rattus norvegicus [6] = experiment: percentage decrease in heart rate after 4 hr at a dose of 3 mg/kg administered perorally in rats.; format: functional
Rattus norvegicus [7] = experiment: percentage decrease in heart rate after 4 hr at a dose of 30 mg/kg administered perorally in rats.; format: functional
Rattus norvegicus [8] = experiment: percentage decrease in heart rate after 6 hr at a dose of 10 mg/kg administered perorally in rats.; format: functional
Rattus norvegicus [9] = experiment: percentage decrease in heart rate after 6 hr at a dose of 1 mg/kg administered perorally in rats.; format: functional
Rattus norvegicus [10] = experiment: percentage decrease in heart rate after 6 hr at a dose of 3 mg/kg administered perorally in rats.; format: functional
Rattus norvegicus [11] = experiment: percentage decrease in heart rate after 6 hr at a dose of 30 mg/kg administered perorally in rats.; format: functional
Rattus norvegicus [12] = experiment: percentage decrease in heart rate after 1 hr at a dose of 10 mg/kg administered perorally in rats.; format: functional
Rattus norvegicus [13] = experiment: percentage decrease in heart rate after 1 hr at a dose of 3 mg/kg administered perorally in rats.; format: functional
Rattus norvegicus [14] = experiment: percentage decrease in heart rate after 24 hr at a dose of 10 mg/kg administered perorally in rats.; format: functional
Rattus norvegicus [15] = experiment: percentage decrease in heart rate after 1 hr at a dose of 1 mg/kg administered perorally in rats.; format: functional
Rattus norvegicus [16] = experiment: Cumulative effect on spontaneous motor activity in rats at 10 mg/kg given perorally; format: functional
Rattus norvegicus [17] = experiment: Cumulative effect on spontaneous motor activity in rats at 100 mg/kg given perorally; format: functional
Rattus norvegicus [18] = experiment: Cumulative effect on spontaneous motor activity in rats at 30 mg/kg given perorally; format: functional
Rattus norvegicus [19] = experiment: Cumulative effect on spontaneous motor activity in rats at 300 mg/kg given perorally; values less than 25 % are inactive; format: functional
Rattus norvegicus [20] = experiment: Effect on spontaneous motor activity in rats after 1 hr at 10 mg/kg given perorally; format: functional
Rattus norvegicus [21] = experiment: Effect on spontaneous motor activity in rats after 1 hr at 100 mg/kg given perorally; format: functional
Rattus norvegicus [22] = experiment: Effect on spontaneous motor activity in rats after 1 hr at 30 mg/kg given perorally; format: functional
Rattus norvegicus [23] = experiment: Effect on spontaneous motor activity in rats after 1 hr at 300 mg/kg given perorally; values less than 25 % are inactive; format: functional
Rattus norvegicus [24] = experiment: Effect on spontaneous motor activity in rats after 2 hr at 10 mg/kg given perorally; format: functional
Rattus norvegicus [25] = experiment: Effect on spontaneous motor activity in rats after 2 hr at 100 mg/kg given perorally; format: functional
Rattus norvegicus [26] = experiment: Effect on spontaneous motor activity in rats after 2 hr at 30 mg/kg given perorally; values less than 25 % are inactive; format: functional
Rattus norvegicus [27] = experiment: Effect on spontaneous motor activity in rats after 2 hr at 300 mg/kg given perorally; values less than 25 % are inactive; format: functional
Rattus norvegicus [28] = experiment: Percentage decrease in systolic blood pressure after 6 hr at 3 mg/kg administered perorally in rats; format: functional, Artery
Rattus norvegicus [29] = experiment: Percentage decrease in systolic blood pressure (heart rate) after 4 hr at 10 mg/kg administered perorally in rats; format: functional, Artery
Rattus norvegicus [30] = experiment: Percentage decrease in systolic blood pressure (heart rate) after 6 hr at 10 mg/kg administered perorally in rats; format: functional, Artery
Rattus norvegicus [31] = experiment: Percentage decrease in systolic blood pressure (heart rate) after 6 hr at 30 mg/kg administered perorally in rats; format: functional, Artery
Rattus norvegicus [32] = experiment: Percentage decrease in systolic blood pressure after 1 hr at 1 mg/kg administered perorally in rats; format: functional, Artery
Rattus norvegicus [33] = experiment: Percentage decrease in systolic blood pressure after 1 hr at 3 mg/kg administered perorally in rats; format: functional, Artery
Rattus norvegicus [34] = experiment: Percentage decrease in systolic blood pressure after 24 hr at 1 mg/kg administered perorally in rats; format: functional, Artery
Rattus norvegicus [35] = experiment: Percentage decrease in systolic blood pressure after 24 hr at 10 mg/kg administered perorally in rats; format: functional, Artery
Rattus norvegicus [36] = experiment: Percentage decrease in systolic blood pressure after 24 hr at 3 mg/kg administered perorally in rats; format: functional, Artery
Rattus norvegicus [37] = experiment: Percentage decrease in systolic blood pressure after 4 hr at 1 mg/kg administered perorally in rats; format: functional, Artery
Rattus norvegicus [38] = experiment: Percentage decrease in systolic blood pressure (heart rate) after 1 hr at 10 mg/kg administered perorally in rats; format: functional, Artery
Rattus norvegicus [39] = experiment: Percentage decrease in systolic blood pressure after 4 hr at 30 mg/kg administered perorally in rats; format: functional, Artery
Rattus norvegicus [40] = experiment: Percentage decrease in systolic blood pressure after 6 hr at 1 mg/kg administered perorally in rats; format: functional, Artery
Rattus norvegicus [41] = experiment: Percentage decrease in systolic blood pressure (heart rate) after 24 hr at 30 mg/kg administered perorally in rats; format: functional, Artery
Rattus norvegicus [42] = experiment: Percentage decrease in systolic blood pressure after 4 hr at 3 mg/kg administered perorally in rats; format: functional, Artery
Rattus norvegicus [43] = experiment: percentage decrease in heart rate after 24 hr at a dose of 30 mg/kg administered perorally in rats; format: functional
Rattus norvegicus [44] = experiment: percentage decrease in heart rate after 6 hr at a dose of 30 mg/kg administered perorally in rats; format: functional
Rattus norvegicus [45] = experiment: percentage decrease in heart rate after 1 hr at a dose of 30 mg/kg administered perorally in rats; format: functional
Rattus norvegicus [46] = experiment: Percentage decrease in systolic blood pressure after 6 hr at 30 mg/kg administered perorally in rats; format: functional, Artery
Rattus norvegicus [47] = experiment: Percentage decrease in systolic blood pressure after 1 hr at 30 mg/kg administered perorally in rats; format: functional, Artery
Rattus norvegicus [48] = experiment: Percentage decrease in systolic blood pressure after 24 hr at 30 mg/kg administered perorally in rats; format: functional, Artery
Rattus norvegicus [49] = experiment: percentage decrease in heart rate after 4 hr at a dose of 30 mg/kg administered perorally in rats; format: functional
Rattus norvegicus [50] = experiment: percentage decrease in heart rate after 24 hr at a dose of 3 mg/kg administered perorally in rats; format: functional
Rattus norvegicus [51] = experiment: percentage decrease in heart rate after 4 hr at a dose of 100 mg/kg administered perorally in rats; format: functional
Rattus norvegicus [52] = experiment: percentage decrease in heart rate after 4 hr at a dose of 10 mg/kg administered perorally in rats; format: functional
Rattus norvegicus [53] = experiment: percentage decrease in heart rate after 4 hr at a dose of 3 mg/kg administered perorally in rats; format: functional
Rattus norvegicus [54] = experiment: percentage decrease in heart rate after 6 hr at a dose of 10 mg/kg administered perorally in rats; format: functional
Rattus norvegicus [55] = experiment: percentage decrease in heart rate after 6 hr at a dose of 3 mg/kg administered perorally in rats; format: functional
Rattus norvegicus [56] = experiment: percentage decrease in heart rate after 1 hr at a dose of 10 mg/kg administered perorally in rats; format: functional
Rattus norvegicus [57] = experiment: percentage decrease in heart rate after 1 hr at a dose of 3 mg/kg administered perorally in rats; format: functional
Rattus norvegicus [58] = experiment: percentage decrease in heart rate after 24 hr at a dose of 10 mg/kg administered perorally in rats; format: functional
Rattus norvegicus [59] = experiment: Percentage decrease in systolic blood pressure after 1 hr at 10 mg/kg administered perorally in rats; format: functional, Artery
Rattus norvegicus [60] = experiment: Percentage decrease in systolic blood pressure after 4 hr at 10 mg/kg administered perorally in rats; format: functional, Artery
Rattus norvegicus [61] = experiment: Percentage decrease in systolic blood pressure after 6 hr at 10 mg/kg administered perorally in rats; format: functional, Artery
Rattus norvegicus [62] = experiment: Percentage decrease in systolic blood pressure after 4 hr at 100 mg/kg administered perorally in rats; format: functional, Artery

With `CCCCCC(C)C(C)c1cc(O)c2c(c1)OC(C)(C)C1=C2CN(C(=O)CO)CC1` (stereo unspecified) the Heart rate (Rattus norvegicus [1]) was -18%, the Heart rate (Rattus norvegicus [2]) was 6% and the Heart rate (Rattus norvegicus [3]) was -1%. The Heart rate (Rattus norvegicus [4]) was 25%, the Heart rate (Rattus norvegicus [5]) was -18% and the Heart rate (Rattus norvegicus [6]) was -1%. For the same compound, the Heart rate (Rattus norvegicus [7]) was 25%, the Heart rate (Rattus norvegicus [8]) was 7% and the Heart rate (Rattus norvegicus [9]) was -22%. For the same compound, the Heart rate (Rattus norvegicus [10]) was -12%, the Heart rate (Rattus norvegicus [11]) was 6% and the Heart rate (Rattus norvegicus [12]) was 12%. The Heart rate (Rattus norvegicus [13]) was -3%, the Heart rate (Rattus norvegicus [14]) was 11% and the Heart rate (Rattus norvegicus [15]) was -18%. The Activity (Rattus norvegicus [16]) was 50%, the Activity (Rattus norvegicus [17]) was 30% and the Activity (Rattus norvegicus [18]) was 60%. For the same compound, the Activity (Rattus norvegicus [19]) was -45%, the Activity (Rattus norvegicus [20]) was 38% and the Activity (Rattus norvegicus [21]) was 29%. For the same compound, the Activity (Rattus norvegicus [22]) was 67%, the Activity (Rattus norvegicus [23]) was -46% and the Activity (Rattus norvegicus [24]) was 116%. The Activity (Rattus norvegicus [25]) was 32%, the Activity (Rattus norvegicus [26]) was 23% and the Activity (Rattus norvegicus [27]) was -42%. The “Decrease in Systolic blood pressure” value (Rattus norvegicus [28]) was 3%, the “Decrease in Systolic blood pressure” value (Rattus norvegicus [29]) was 34% and the “Decrease in Systolic blood pressure” value (Rattus norvegicus [30]) was 19%. For the same compound, the “Decrease in Systolic blood pressure” value (Rattus norvegicus [31]) was 24%, the “Decrease in Systolic blood pressure” value (Rattus norvegicus [32]) was 0% and the “Decrease in Systolic blood pressure” value (Rattus norvegicus [33]) was 9%. The “Decrease in Systolic blood pressure” value (Rattus norvegicus [34]) was -5%, the “Decrease in Systolic blood pressure” value (Rattus norvegicus [35]) was 4% and the “Decrease in Systolic blood pressure” value (Rattus norvegicus [36]) was 3%. For the same compound, the “Decrease in Systolic blood pressure” value (Rattus norvegicus [37]) was 0%, the “Decrease in Systolic blood pressure” value (Rattus norvegicus [38]) was 20% and the “Decrease in Systolic blood pressure” value (Rattus norvegicus [39]) was 26%. The “Decrease in Systolic blood pressure” value (Rattus norvegicus [40]) was -5%, the “Decrease in Systolic blood pressure” value (Rattus norvegicus [41]) was 16% and the “Decrease in Systolic blood pressure” value (Rattus norvegicus [42]) was 15%.

Compound `CCCCCC(C)C(C)c1cc(O)c2c(c1)OC(C)(C)C1=C2CN(C(=O)CN)CC1` (stereo unspecified) has a Heart rate (Rattus norvegicus [43]) of 10%, a Heart rate (Rattus norvegicus [44]) of 13% and a Heart rate (Rattus norvegicus [45]) of 9%. The “Decrease in Systolic blood pressure” value (Rattus norvegicus [46]) was 8%, the “Decrease in Systolic blood pressure” value (Rattus norvegicus [47]) was 12% and the “Decrease in Systolic blood pressure” value (Rattus norvegicus [48]) was 2%. For the same compound, the “Decrease in Systolic blood pressure” value (Rattus norvegicus [39]) was 10% and the Heart rate (Rattus norvegicus [49]) was -5%.

Compound `CC(CCCc1ccc(F)cc1)c1cc(O)c2c(c1)OC(C)(C)C1=C2CN(C(=O)CCCO)CC1` (stereo unspecified) has a Heart rate (Rattus norvegicus [43]) of 15%, a Heart rate (Rattus norvegicus [50]) of -24% and a Heart rate (Rattus norvegicus [51]) of 20%. The Heart rate (Rattus norvegicus [52]) was 18%, the Heart rate (Rattus norvegicus [53]) was 0% and the Heart rate (Rattus norvegicus [54]) was 16%. The Heart rate (Rattus norvegicus [44]) was 9%, the Heart rate (Rattus norvegicus [55]) was 5% and the Heart rate (Rattus norvegicus [56]) was 3%. It also gave a Heart rate (Rattus norvegicus [45]) of 2%, a Heart rate (Rattus norvegicus [57]) of -17% and a Heart rate (Rattus norvegicus [58]) of 6%. The “Decrease in Systolic blood pressure” value (Rattus norvegicus [28]) was 9%, the “Decrease in Systolic blood pressure” value (Rattus norvegicus [46]) was 12% and the “Decrease in Systolic blood pressure” value (Rattus norvegicus [47]) was 11%. The “Decrease in Systolic blood pressure” value (Rattus norvegicus [59]) was 11%, the “Decrease in Systolic blood pressure” value (Rattus norvegicus [33]) was -6% and the “Decrease in Systolic blood pressure” value (Rattus norvegicus [35]) was 17%. The “Decrease in Systolic blood pressure” value (Rattus norvegicus [36]) was -8%, the “Decrease in Systolic blood pressure” value (Rattus norvegicus [60]) was 28% and the “Decrease in Systolic blood pressure” value (Rattus norvegicus [48]) was 22%. For the same compound, the “Decrease in Systolic blood pressure” value (Rattus norvegicus [39]) was 26%, the “Decrease in Systolic blood pressure” value (Rattus norvegicus [61]) was 19% and the “Decrease in Systolic blood pressure” value (Rattus norvegicus [42]) was 5%. The “Decrease in Systolic blood pressure” value (Rattus norvegicus [62]) was 32% and the Heart rate (Rattus norvegicus [49]) was 23%.
